Patent publication US20250346582A1, “SPLEEN TYROSINE KINASE INHIBITORS AND METHODS OF USE THEREOF” (THE BOARD OF TRUSTEES OF THE UNIVERSITY OF ILLINOIS, priority 2022, published 2025)
Where two headings read alike, the source gives them in different places.

How the values were obtained:
[1] = target: T1, Syk-cSH2 (Homo sapiens, UniProt P43405); assay: Fluorescence quenching vesicle binding assay, Syk-cSH2
T1 construct: polyhistidine (N); made in house; host or cells: Escherichia coli BL21 (DE3) pLysS
Procedure: (§1) The membrane-binding assay is based on fluorescence quenching of EGFP fused to a SH2 domain by a dark quencher containing lipid, dabsyl-PE, incorporated in lipid vesicles. The plate reader assay was performed using the Synergy™ Neo spectrofluorometer at 25° C. Nontreated black polystyrene 96-well plates (Corning) were used. Protein (10-50 nM) with the increasing concentration of vesicles with a given lipid composition in 20 mM Tris buffer, pH 7.4, containing 0.16 M NaCl was added to each row of wells and the EGFP fluorescence emission at 516 nm was measured with excitation set at 485 nm. Z′ factor for the assay system was determined as described^74. Imax and IC50 values of inhibitors were determined using the equation, I=Imax/(1+IC50/[I]) where I and [I] indicate % inhibition and inhibitor concentration, respectively. The average and standard deviation values were obtained from triplicate determinations.
(§2) We also optimized a recently developed fluorescence quenching-based lipid-binding assay^47 for high-throughput screening of these molecules for their inhibitory activity against the PIP3-SH2 interaction. Specifically, we expressed SH2 domains as EGFP-tagged proteins and directly quantified their membrane binding by monitoring the quenching of EGFP fluorescence emission intensity by a dark quencher-containing lipid, N-dimethylaminoazo-benzenesulfonyl-phosphatidylethanolamine (dabsyl-PE), incorporated in the vesicles. We then screened for compounds that inhibited binding of Syk-cSH2, BLNK-SH2, and PLCγ2-cSH2, respectively, to 1-palmitoyl-2-oleoyl-PC (POPC)/1-palmitoyl-2-oleoyl-PS (POPS)/PIP3/dabsyl-PE (67:20:3:10) vesicles while eliminating those that inhibit their non-specific binding to anionic POPC/POPS/dabsyl-PE (70:20:10) vesicles. The quality of the screening system was evaluated using 1% dimethylsulfoxide (DMSO) and 20 μM D-myo-inositol-1,3,4,5-tetraphosphate (IP4) as negative and positive controls, respectively. The clear separation of positive and negative control data and the average Z′-factor of 0.7 supported the robustness of our system for high-throughput screen of PIP3-SH2 interaction inhibitors.

[2] = target: T2, PLCγ2-cSH2 (Homo sapiens, UniProt P16885); assay: Fluorescence quenching vesicle binding assay, PLCγ2-cSH2; settings: Table 2, PLCγ2-cSH2 binding to POPC/POPS/PIP3/dabsyl-PE vesicles
T2 construct: polyhistidine (N); made in house; host or cells: Escherichia coli BL21 (DE3) pLysS
T2 sequence (P16885 646-735 limits assumed): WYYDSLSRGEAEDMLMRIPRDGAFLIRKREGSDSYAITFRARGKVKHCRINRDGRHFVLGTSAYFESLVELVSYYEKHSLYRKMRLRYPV
Procedure: as §1, §2

[3] = test system: BCR signaling axis (Syk-BLNK-PLCγ2); assay: Western blot of BCR signaling axis in Raji B lymphocytes; type: cell-based; settings: Raji B cells
Procedure: Cells were seeded at a density of 3.0×10^5 cells/well prior to incubation with inhibitors. Cells were incubated with 1-5 μM of Syk inhibitors overnight and stimulated with different antibodies: IgG2 for AML cells, IgM for Raji B cells, and OKT3 (Biolegend) for Jurkat cells. The cells were lysed in NP40 lysis buffer (50 mM Tris, pH 7.5, 150 mM NaCl, 1 mM EDTA, 1% NP40, 10% glycerol, 10 mM NaF, 10 mM Na3VO4, and the protease inhibitor cocktail) at 4° C. and the cell debris was removed by centrifugation. Samples were analyzed by SDS-PAGE. Proteins were separated and transferred to Immobilon-P polyvinylidene difluoride membrane (Millipore Sigma). The membrane was blocked with 5% bovine serum albumin for 1 h and incubated overnight at 4° C. with various antibodies (1:1000 dilution for all antibodies). After the unbound antibodies were removed by washing with 0.1% Tris buffer saline with 0.1% Tween20, the membranes were incubated with the horseradish peroxidase secondary antibody (1:5000 dilution) for 1 h at room temperature. The membranes were washed three more times with 0.1% Tris buffer saline with 0.1% Tween20 to remove the unbound horseradish peroxidase secondary antibody before imaging. The chemiluminescence intensity of protein bands in the gel was analyzed and documented by the Azure 500Q Imaging System.

[4] = target: T3, BLNK-SH2 (Homo sapiens, UniProt Q8WV28); assay: Fluorescence quenching vesicle binding assay, BLNK-SH2; settings: Table 2; BLNK-SH2 binding to POPC/POPS/PIP3/dabsyl-PE vesicles; read-out: Imax (%)
T3 construct: All SH2 domain constructs were cloned into the pRSET-B vector; polyhistidine (N); made in house; host or cells: Escherichia coli BL21 (DE3) pLysS
T3 sequence (Q8WV28 346-453 limits assumed): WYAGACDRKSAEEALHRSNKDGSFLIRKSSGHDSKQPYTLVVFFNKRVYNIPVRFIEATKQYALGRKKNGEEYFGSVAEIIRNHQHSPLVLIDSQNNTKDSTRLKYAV
Procedure: as §1, §2

[5] = Table 3, efficacy determined by the vesicle binding assay
[6] = Table 3, efficacy determined by the vesicle binding assay, read-out: IC50

Imax (%) [1, 5] | IC50 [1, 6] [µM] | Compound | also measured
Imax (%) = 12 | 4 | [N-]=[N+]=C(C(=O)OC1CCCCC1)C(Nc1ncccn1)c1ccc(O)cc1 (centres unmarked) [WC = 42] | 
Imax (%) = 10 | 3.8 | COc1ccc(C(Nc2ncccn2)C(=[N+]=[N-])C(=O)OC2CCCCC2)cc1 (centres unmarked) [WC-30] | 
Imax (%) = 10 | 5 | [N-]=[N+]=C(C(=O)OC1CCCCC1)C(Nc1ncccn1)c1ccc(F)cc1 (centres unmarked) [WC-32] | 
Imax (%) = 10 | 2.8 | CN(C)c1ccc(C(Nc2ncccn2)C(=[N+]=[N-])C(=O)OC2CCCCC2)cc1 (centres unmarked) [WC-34] | 
Imax (%) = 15 | 2.8 | [N-]=[N+]=C(C(=O)OC1CCCCC1)C(Nc1ncccn1)c1cccs1 (centres unmarked) [WC-37] | 
Imax (%) = 12 | 3.6 | COc1cc(OC)cc(C(Nc2ncccn2)C(=[N+]=[N-])C(=O)OC2CCCCC2)c1 (centres unmarked) [WC-45] | 
Imax (%) = 10 | 5 | [N-]=[N+]=C(C(=O)OC1CCCCC1)C(Nc1ncccn1)c1ccccc1 (centres unmarked) [WC-46] | 
Imax (%) ≤ 10 | 5 | [N-]=[N+]=C(C(=O)OC1CCCCC1)C(Nc1ccccn1)c1ccc(Br)cc1 (centres unmarked) [WC-62] | 
Imax (%) ≤ 10 | 4.5 | [N-]=[N+]=C(C(=O)OC1CCCCC1)C(Nc1ncccn1)c1ccc(Br)cc1 (centres unmarked) [WC-68] | 
Imax (%) ≤ 10 | 8 | Cc1ccc(C(Nc2cnccn2)C(=[N+]=[N-])C(=O)OC2CCCCC2)cc1 (centres unmarked) [WC-73] | 
Imax (%) = 18 | 2 | Cc1ccc(C(Nc2ncccn2)C(=[N+]=[N-])C(=O)OC2CCCC2)cc1 (centres unmarked) [WC-100] | 
Imax (%) = 20 | 4 | [N-]=[N+]=C(C(=O)OC1CCCC1)C(Nc1ncccn1)c1ccc(C(F)(F)F)cc1 (centres unmarked) [WC-120] | 
Imax (%) = 20 | 1.5 | [N-]=[N+]=C(C(=O)OC1CCCCC1)C(Nc1cnccn1)c1cccnc1 (centres unmarked) [WC-125] | 
Imax (%) = 25 | 2 | [N-]=[N+]=C(C(=O)OC1CCCCC1)C(Nc1ncccn1)c1ccncc1 (centres unmarked) [WC-130] | 
Imax (%) = 15 | 5 | [N-]=[N+]=C(C(=O)OC1CCCCC1)C(C=Cc1ccccc1)Nc1ncccn1 (centres unmarked) [WC-132] | 

Further lines, the compound ahead of its results:

Compound | Imax (%) [1, 5] | IC50 [1, 6] [µM] | also measured
CCOC(=O)NC(C(=O)OCC)c1cccc(Cl)n1 (centres unmarked) [VG370] |  |  | Imax (%) ([1]; Table 2, Syk-cSH2 binding to POPC/POPS/PIP3/dabsyl-PE vesicles): <10%; IC50 [2]: 680 ± 50 nM; Emax ([2]; read-out: Imax (%)): 40 to 50%; effect on phosphorylation of BCR signaling proteins (Syk, BLNK, PLCγ2) [3]: selectively suppressed phosphorylation of PLCγ2; Emax [4]: < 20%
CC(C)(C)OC(=O)C(=[N+]=[N-])C(Nc1ccccn1)c1ccc(Br)cc1 (centres unmarked) [WC-50] | Imax (%) = 10 | 4.5 | 
[N-]=[N+]=C(C(=O)OC1CCCCC1)C(Nc1ccccn1)c1ccc(O)c(Br)c1 (centres unmarked) [WC-52] | Imax (%) = 12 | 3.5 | 
Cc1ccc(C(Nc2ncccn2)C(=[N+]=[N-])C(=O)OC(C)(C)C)cc1 (centres unmarked) [WC-56] | Imax (%) ≤ 10 | 2 | 
COc1cc(C(Nc2ncccn2)C(=[N+]=[N-])C(=O)OC(C)(C)C)cc(OC)c1OC (centres unmarked) [WC-59] | Imax (%) ≤ 10 | 4 | 
[N-]=[N+]=C(C(=O)OC1CCCCC1)C(Nc1ncccn1)c1c(F)c(F)c(F)c(F)c1F (centres unmarked) [WC-70] | Imax (%) ≤ 10 | 2.5 | 
CCOP(=O)(OCC)C(=[N+]=[N-])C(Nc1ccccn1)c1ccc(C)cc1 (centres unmarked) [WC-75] | Imax (%) = 12 |  | IC50 [1]: 7 µM
Cc1ccc(C(CC(=O)OC2CCCCC2)Nc2ncccn2)cc1 (centres unmarked) [WC-79] | Imax (%) ≤ 10 | 10 | 
Cc1ccc(/C(=C/C(=O)OC2CCCCC2)Nc2cnccn2)cc1 [WC-80] | Imax (%) = > 10 | 15 | 
CCOP(=O)(/C=C(\Nc1ccccn1)c1ccc(C)cc1)OCC [WC-85] | Imax (%) ≤ 10 |  | IC50 [1]: 12 µM
CCOC(=O)/C=C(\NS(=O)(=O)c1ccccc1)c1ccc(C)cc1 [WC-90] | Imax (%) ≤ 10 | 20 | 
Cc1ccc(C(Nc2ncc(C)s2)C(=[N+]=[N-])C(=O)OC2CCCCC2)cc1 (centres unmarked) [WC-92] | Imax (%) = 15 | 10 | 
Cc1ccc(C(Nc2cc(C)ccn2)C(=[N+]=[N-])C(=O)OC2CCCCC2)cc1 (centres unmarked) [WC-95] | Imax (%) ≤ 10 | 5 | 
Cc1ccc(C(Nc2ncccn2)C(=[N+]=[N-])C(=O)ON2CCC(C)CC2)cc1 (centres unmarked) [WC-105] | Imax (%) = 15 | 4 | 
Cc1ccc(C(Nc2ncccn2)C(=[N+]=[N-])C(=O)ON2CCOCC2)cc1 (centres unmarked) [WC-108] | Imax (%) = 20 | 2 | 
Cc1ccc(C(Nc2ncccn2)C(=[N+]=[N-])C(=O)ON2CCN(C)CC2)cc1 (centres unmarked) [WC-109] | Imax (%) = 25 | 2 | 
CCOC(=O)C(=[N+]=[N-])C(Nc1ccccn1)c1ccccc1 (centres unmarked) [WC-110] | Imax (%) ≤ 10 | 5 | 
CCOC(=O)C(=[N+]=[N-])C(Nc1ccccn1)c1ccc(O)cc1 (centres unmarked) [WC-111] | Imax (%) ≤ 10 | 7 | 
CCOC(=O)C(=[N+]=[N-])C(Nc1ncccn1)c1ccc(O)cc1 (centres unmarked) [WC-115] | Imax (%) = 20 | 2 | 
[N-]=[N+]=C(C(=O)OC1CCCC1)C(Nc1ccccn1)c1ccccc1 (centres unmarked) [WC-118] | Imax (%) = 15 | 4 | 
CCOC(=O)C(=[N+]=[N-])C(Nc1ccccn1)c1ccc(C(F)(F)F)cc1 (centres unmarked) [WC-121] | Imax (%) ≤ 10 | 4.8 | 
CCOC(=O)C(=[N+]=[N-])C(Nc1ccccn1)c1cccnc1 (centres unmarked) [WC-128] | Imax (%) = 18 | 3.5 | 
